Reference: patent publication US20220002306A1, “CRYSTAL FORM OF UPADACITINIB AND PREPARATION METHOD AND USE THEREOF” (CRYSTAL PHARMACEUTICAL (SUZHOU) CO., LTD., priority 2018, published 2022)
Converted amounts (≈) assume the structure as drawn. “And” between values parts separate entries of the source, which are not always exact repeats. Equal values may be shown once. “Also recorded” adds a separate entry of the source.

Assays:
[1] = disclosed in WO2017066775A1, cited from earlier work
[2] = FaSSIF (pH 6.5, 37° C.); disclosed in WO2017066775A1; cited from earlier work
[3] = In vitro dissolution of drug product (tablet) in pH 6.8 PBS; assay type: physicochemical; conditions: for Cumulative dissolution: drug product of example 16, 30 mg, 37° C., paddle 75 rpm
[4] = Compressibility (tablet hardness, tensile strength); assay type: physicochemical
Description: An ENERPAC manual tablet press was used for compression. 80 mg of Form CSI of the present disclosure and prior art Form C were weighed and added into the dies of a round tooling (ensuring the isotropy of tables), compressed at 10 KN manually, and then stored at room temperature for 24 h until complete elastic recovery. Hardness (H) was tested with an intelligent tablet hardness tester. Diameter (D) and thickness (L) were tested with a caliper. […] Under a certain force, the greater the tensile strength, the better the compressibility.

[5] = Intrinsic dissolution rate in pH 6.8 PBS; assay type: physicochemical; conditions: for IDR / Cumulative dissolution: 37° C.; for Cumulative dissolution: 100 rpm; for Slope: regression line of data within 8-15 minutes
Description: (§1) Solubility measurement for solubility, dissolution, and intrinsic dissolution rate in PBS in the present disclosure:
The whole pellet was transferred to a dissolution apparatus to test the intrinsic dissolution rate. The slope (in μg/min) of the regression line was calculated according to the data within 8-15 minutes. Intrinsic dissolution rate (IDR) was further calculated according to the slope (in μg/min/cm^2).

[6] = Crystalline form before and after formulation process (XRPD); assay type: physicochemical
Source text: Form CSI of the present disclosure was made into tablet according to the formulation in Table 15 and process in Table 16. Crystalline forms before and after formulation were checked by XRPD, and the XRPD pattern overlay is substantially as depicted in FIG. 17.
Crystalline forms before and after formulation were checked by XRPD, and the comparison of XRPD patterns are substantially as depicted in FIG. 18.

[7] = Kinetic solubility in pH7.4 PBS, FaSSIF and FeSSIF; assay type: physicochemical; conditions: for solubility at 24 h / solubility at 34 h / solubility at 48 h: thermodynamic from solid
Description: Solubility measurement for freebase content in upadacitinib freebase acetic acid solvate of the present disclosure. Solubility measurement for upadacitinib freebase acetic acid solvate of the present disclosure in FaSSIF and FeSSIF:
as §1
The solubility of Form C was disclosed in WO2017066775A1. In order to have a comparison with Form C, solubility of Form CSI was measured. Saturated solutions of Form CSI of the present disclosure were prepared with pH7.4 PBS, pH6.5 FaSSIF and pH5.0 FeSSIF at 25° C. or 37° C. After equilibration for 24 h, 34 h and 48 h, the saturated solutions were obtained by filtration. The concentrations of compound I in the saturated solutions were measured by high performance liquid chromatography (HPLC) and the results are listed in Table 8.

[8] = Particle size distribution; assay type: physicochemical; conditions: wet mode, Isopar G, after 30 seconds of ultrasound
Description: The particle size distribution data in the present disclosure were acquired by a Mastersizer 3000 laser particle size analyzer of Malvern. The test is carried out in wet mode by Hydro MV dispersing device, and the dispersion medium is Isopar G. The method parameters of the laser particle size analyzer are as follows:
The mixture was mixed thoroughly and transferred into the Hydro MV dispersing device. The experiment started when the obscuration is in an appropriate range. The particle size distribution was tested after 30 seconds of ultrasound. The particle size distribution (PSD) patterns are substantially as depicted in FIG. 15 (Form CSI) and FIG. 16 (Form C).

[9] = Mechanical stability (tableting, grinding; XRPD); assay type: physicochemical
Description: 20 mg of Form CSI was weighed into the die of 16 mm round tooling (IDR punch), and tableted by ENERPAC manual tablet press with 3 kN, 7 kN, and 14 kN pressure.
A small amount of Form CSI was grounded manually for 5 minutes in a mortar.

[10] = Storage stability of drug substance (XRPD before and after storage); assay type: physicochemical; conditions: for Solid Form after storage: sealed
Description: Solid samples of Form CSI in the present disclosure were sealed and stored under different conditions of 4° C., 25° C./60% RH, 40° C./75% RH, and 60° C./75% RH. Crystalline form was checked by XRPD before and after storage.

[11] = PBS pH 7.4, aqueous buffer, pH 7.4 PBS, 25° C.
[12] = grounded manually for 5 minutes in a mortar

Question: Which Crystallinity and stability [1] does the source give for CC[C@@H]1CN(C(=O)NCC(F)(F)F)C[C@@H]1c1cnc2cnc3[nH]ccc3n12 [Form A] here?
Answer: The Crystallinity and stability was “poor crystallinity and stability”.

Question: And the Dehydration [1]?
Answer: Its Dehydration is “can be easily dehydrated to form amorphous”.

Question: Which Solubility [2] does the source give for CC[C@@H]1CN(C(=O)NCC(F)(F)F)C[C@@H]1c1cnc2cnc3[nH]ccc3n12 [Form C in WO2017066775A1, (3S,4R)-3-ethyl-4-(3H-imidazo[1,2-a]pyrrolo[2,3-e]pyrazine-8-yl)-N-(2,2,2-trifluoroethyl) pyrrolidine-1-carboxamide, reference compound] here?
Answer: The Solubility was 220 µg/mL (≈ 0.578 mM).

Question: What about the Cumulative dissolution ([3]; 0 min) of the same compound?
Answer: The Cumulative dissolution was 0.0%.

Question: What about the Cumulative dissolution ([3]; 5 min) of the same compound?
Answer: Its Cumulative dissolution is 22.7%.

Question: And the Cumulative dissolution ([3]; 10 min)?
Answer: Its Cumulative dissolution is 32.6%.

Question: What about the Cumulative dissolution ([3]; 15 min) of the same compound?
Answer: Its Cumulative dissolution is 39.2%.

Question: What about the Cumulative dissolution ([3]; 20 min) of the same compound?
Answer: Its Cumulative dissolution is 44.4%.

Question: And the Cumulative dissolution ([3]; 30 min)?
Answer: The Cumulative dissolution was 51.5%.

Question: And the Cumulative dissolution ([3]; 45 min)?
Answer: The Cumulative dissolution was 59.5%.

Question: And the Cumulative dissolution ([3]; 60 min)?
Answer: The Cumulative dissolution was 65.2%.

Question: And the Mean tensile strength ([4]; 80 mg compressed at 10 KN)?
Answer: The Mean tensile strength was 0.69 MPa.

Question: And the IDR [5]?
Answer: Its IDR is 81.6204 μg/min/cm^2.

Question: And the Cumulative dissolution ([5]; 8 min)?
Answer: Its Cumulative dissolution is 94.7 µg.

Question: And the Cumulative dissolution ([5]; 10 min)?
Answer: Its Cumulative dissolution is 207.4 µg.

Question: What about the Cumulative dissolution ([5]; 15 min) of the same compound?
Answer: The Cumulative dissolution was 388.1 µg.

Question: And the Slope [5]?
Answer: The Slope was 40.8102 µg/min.

Question: With CC[C@@H]1CN(C(=O)NCC(F)(F)F)C[C@@H]1c1cnc2cnc3[nH]ccc3n12 [Form CSI, (3S,4R)-3-ethyl-4-(3H-imidazo[1,2-a]pyrrolo[2,3-e]pyrazine-8-yl)-N-(2,2,2-trifluoroethyl) pyrrolidine-1-carboxamide] as the compound, how does the “Physical stability before and after formulation process” value ([6]; tablet of Example 15 (Table 15, Table 16)) read?
Answer: Its value is “good physical stability”.

Question: What about the “Crystalline form after formulation process” value ([6]; tablet of Example 16 (Table 17, Table 18)) of the same compound?
Answer: Its value is “remains unchanged”.

Question: What about the solubility at 24 h [7, 11] of the same compound?
Answer: The solubility at 24 h was 790 µg/mL (≈ 2.08 mM).

Question: And the solubility at 34 h [7, 11]?
Answer: Its solubility at 34 h is 710 µg/mL (≈ 1.87 mM).

Question: What about the solubility at 48 h [7, 11] of the same compound?
Answer: The solubility at 48 h was 660 µg/mL (≈ 1.74 mM).

Question: What about the “Solubility compared with Form C” value ([7]; pH7.4 PBS, pH6.5 FaSSIF and pH5.0 FeSSIF) of the same compound?
Answer: The value was “higher than that of Form C”.

Question: What about the solubility at 24 h ([7]; FaSSIF (pH 6.5, 37° C.)) of the same compound?
Answer: Its solubility at 24 h is 3800 µg/mL (≈ 9.99 mM).

Question: What about the solubility at 34 h ([7]; FaSSIF (pH 6.5, 37° C.)) of the same compound?
Answer: The solubility at 34 h was 4100 µg/mL (≈ 10.8 mM).

Question: What about the solubility at 48 h ([7]; FaSSIF (pH 6.5, 37° C.)) of the same compound?
Answer: Its solubility at 48 h is 4100 µg/mL (≈ 10.8 mM).

Question: And the solubility at 24 h ([7]; FeSSIF (pH 5.0, 37° C.))?
Answer: Its solubility at 24 h is 3100 µg/mL (≈ 8.15 mM).

Question: What about the solubility at 34 h ([7]; FeSSIF (pH 5.0, 37° C.)) of the same compound?
Answer: The solubility at 34 h was 3000 µg/mL (≈ 7.89 mM).

Question: And the solubility at 48 h ([7]; FeSSIF (pH 5.0, 37° C.))?
Answer: Its solubility at 48 h is 3100 µg/mL (≈ 8.15 mM).

Question: What about the “Particle size distribution compared with Form C in WO2017066775A1” value [8] of the same compound?
Answer: The value was “more uniform particle size distribution”.

Question: What about the “Dissolution rate of drug product compared with Form C” value [3] of the same compound?
Answer: The value was “obviously better than that of Form C in WO2017066775A1”.

Question: What about the Cumulative dissolution ([3]; 0 min) of the same compound?
Answer: The Cumulative dissolution was 0.0%.

Question: What about the Cumulative dissolution ([3]; 5 min) of the same compound?
Answer: Its Cumulative dissolution is 28.7%.

Question: What about the Cumulative dissolution ([3]; 10 min) of the same compound?
Answer: The Cumulative dissolution was 46.4%.

Question: And the Cumulative dissolution ([3]; 15 min)?
Answer: Its Cumulative dissolution is 53.6%.

Question: And the Cumulative dissolution ([3]; 20 min)?
Answer: Its Cumulative dissolution is 57.5%.

Question: What about the Cumulative dissolution ([3]; 30 min) of the same compound?
Answer: The Cumulative dissolution was 61.3%.

Question: What about the Cumulative dissolution ([3]; 45 min) of the same compound?
Answer: The Cumulative dissolution was 64.9%.

Question: What about the Cumulative dissolution ([3]; 60 min) of the same compound?
Answer: Its Cumulative dissolution is 67.3%.

Question: And the “Crystalline state after tableting” value ([9]; 3 kN, 7 kN, and 14 kN pressure)?
Answer: The value was “does not change”.

Question: What about the Crystallinity after tableting ([9]; 3 kN, 7 kN, and 14 kN pressure) of the same compound?
Answer: Its Crystallinity after tableting is “remains substantially unchanged”.

Question: What about the “Crystalline state after grinding” value [9, 12] of the same compound?
Answer: Its value is “does not change; also recorded: remains unchanged after grinding”.

Question: What about the Crystallinity after grinding [9, 12] of the same compound?
Answer: Its Crystallinity after grinding is “remains substantially unchanged”.

Question: And the “Time the crystalline form kept stable” value ([10]; 4° C.)?
Answer: Its value is “at least 6 months”.

Question: What about the “Chemical purity during storage” value ([10]; 4° C., 40° C./75% RH and 60° C./75% RH) of the same compound?
Answer: Its value is “remains substantially unchanged”.

Question: What about the “Solid Form after storage” value ([10]; 4° C., 6 months) of the same compound?
Answer: Its value is “Form CSI”.

Question: And the “Chemical purity during storage” value ([10]; 25° C./60% RH)?
Answer: Its value is “remains substantially unchanged”.

Question: And the “Solid Form after storage” value ([10]; 25° C./60% RH, 6 months)?
Answer: Its value is “Form CSI”.

Question: And the “Solid Form after storage” value ([10]; 40° C./75% RH, 2 weeks)?
Answer: The value was “Form CSI”.

Question: And the “Solid Form after storage” value ([10]; 60° C./75% RH, 2 weeks)?
Answer: Its value is “Form CSI”.

Question: And the Mean tensile strength ([4]; 80 mg compressed at 10 KN)?
Answer: Its Mean tensile strength is 1.53 MPa.

Question: What about the Hardness ([4]; 80 mg compressed at 10 KN, tablets No. 1-3) of the same compound?
Answer: Its Hardness is 3.53 kgf and 3.06 kgf and 3.43 kgf.

Question: What about the Tensile strength ([4]; 80 mg compressed at 10 KN, tablets No. 1-3, T=2H/πDL*9.8) of the same compound?
Answer: Its Tensile strength is 1.57 MPa and 1.43 MPa and 1.58 MPa.

Question: What about the “Compressibility compared with Form C” value ([4]; compressed at 10 KN) of the same compound?
Answer: Its value is “better compressibility than Form C in WO2017066775A1”.

Question: And the IDR [5]?
Answer: The IDR was 665.4630 μg/min/cm^2.

Question: And the Cumulative dissolution ([5]; 8 min)?
Answer: The Cumulative dissolution was 746.1 µg.

Question: And the Cumulative dissolution ([5]; 10 min)?
Answer: Its Cumulative dissolution is 1458.8 µg.

Question: What about the Cumulative dissolution ([5]; 15 min) of the same compound?
Answer: The Cumulative dissolution was 3087.0 µg.

Question: And the Slope [5]?
Answer: The Slope was 332.7315 µg/min.

Question: For CC[C@@H]1CN(C(=O)NCC(F)(F)F)C[C@@H]1c1cnc2cnc3[nH]ccc3n12 [Form D], which Form conversion ([1]; high water activity) is on record?
Answer: Its Form conversion is “will convert to Form C”.
